Experimental findings from ChEMBL document CHEMBL6182949 (J Med Chem, 2025) are described below.

Data set [1] has as its target T1, Interleukin-1 receptor-associated kinase 4 (Homo sapiens, UniProt Q9NWZ3).
T1 sequence (Q9NWZ3 whole entry): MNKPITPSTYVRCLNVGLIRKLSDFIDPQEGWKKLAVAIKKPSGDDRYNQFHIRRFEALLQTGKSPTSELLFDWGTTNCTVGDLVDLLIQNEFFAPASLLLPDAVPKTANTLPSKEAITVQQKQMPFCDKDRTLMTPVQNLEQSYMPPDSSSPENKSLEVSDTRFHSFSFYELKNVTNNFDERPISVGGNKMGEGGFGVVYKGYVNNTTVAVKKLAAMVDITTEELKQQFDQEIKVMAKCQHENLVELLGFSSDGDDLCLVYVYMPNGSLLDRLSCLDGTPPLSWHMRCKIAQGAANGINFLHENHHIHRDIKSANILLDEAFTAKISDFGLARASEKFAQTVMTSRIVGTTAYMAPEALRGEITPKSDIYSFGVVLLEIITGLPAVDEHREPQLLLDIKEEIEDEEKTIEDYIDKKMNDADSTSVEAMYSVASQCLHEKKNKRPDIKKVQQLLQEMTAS
The data set can be described thus: Inhibition of IRAK4 (unknown origin).

Data set [2] has as its target T2, Protein cereblon/Interleukin-1 receptor-associated kinase 4 (Homo sapiens, UniProt Q9NWZ3+Q96SW2). The data set can be described thus: PROTAC activity at CRBN/IRAK4 in human THP-1 cells assessed as induction of IRAK4 degradation incubated for 24 hrs by HiBiT lytic reagent based analysis relative to control. It counts as cell-based. A general note: HiBiT is a short tag that completes a luciferase, so light tracks the accessible tagged protein.
Target sequence in this assay (Q96SW2 whole entry, looked up, one chain of several): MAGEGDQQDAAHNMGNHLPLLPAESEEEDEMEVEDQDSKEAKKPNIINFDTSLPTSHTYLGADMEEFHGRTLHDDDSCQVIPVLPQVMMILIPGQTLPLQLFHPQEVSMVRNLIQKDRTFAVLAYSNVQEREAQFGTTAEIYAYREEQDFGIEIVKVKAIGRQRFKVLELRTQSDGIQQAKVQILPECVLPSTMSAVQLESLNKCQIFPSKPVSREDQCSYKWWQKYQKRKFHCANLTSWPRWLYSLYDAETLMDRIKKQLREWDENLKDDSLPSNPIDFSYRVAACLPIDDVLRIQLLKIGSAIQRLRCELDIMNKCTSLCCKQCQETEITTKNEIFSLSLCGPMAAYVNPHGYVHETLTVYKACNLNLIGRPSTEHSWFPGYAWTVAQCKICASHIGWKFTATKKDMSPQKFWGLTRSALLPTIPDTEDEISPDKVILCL

The nature of data set [3]: Metabolic stability in human liver microsome assessed as half life at 1 uM measured up to 60 mins in presence of NADPH by LC-MS/MS analysis. In kind it is ADME. To be noted: liver microsomes.
Data set [4] is described as follows: Metabolic stability in dog liver microsome assessed as half life at 1 uM measured up to 60 mins in presence of NADPH by LC-MS/MS analysis. It counts as ADME, Canis lupus familiaris. To be noted: liver microsomes.
The target in data set [5] is T2, Protein cereblon/Interleukin-1 receptor-associated kinase 4. As to the kind of experiment: PROTAC activity at CRBN/IRAK4 in human THP-1 cells assessed as induction of IRAK4 degradation incubated for 24 hrs by HiBiT lytic reagent based analysis. In kind it is cell-based.
Target sequence in this assay (Q96SW2 whole entry, one chain of several): as the sequence (Q96SW2 whole entry, looked up, one chain of several) above
A further data set deals with hERG (Homo sapiens, UniProt Q12809). The data set can be described thus: Inhibition of hERG expressed in HEK293 cells at 10 uM by manual patch clamp assay relative to control. In kind it is toxicity, cell-based. To be noted: HEK293 cells expressing hERG.
The nature of data set [6]: Metabolic stability in mouse liver microsome assessed as half life at 1 uM measured up to 60 mins in presence of NADPH by LC-MS/MS analysis. In kind it is ADME. To be noted: liver microsomes.
In data set [7] the test system is Mus musculus. The data set can be described thus: Anti-psoriasis effect in IMQ-induced C57BL/6 mouse assessed as reduction in cumulative score at 30 mg/kg administered topically twice daily for 6 days and measured after 24 hrs. It counts as functional, organism-based. To be noted: time 7.0 day.
Data set [8] is described as follows: Inhibition of LPS-stimulated IL-6 release in human PBMC cells. It counts as functional, cell-based.
The test system of data set [9] is Mus musculus. The data set can be described thus: Anti-psoriasis effect in IMQ-induced C57BL/6 mouse assessed as reduction in delta ear thickness at 30 mg/kg administered topically twice daily for 6 days and measured after 24 hrs. In kind it is functional, organism-based. To be noted: time 7.0 day.
Data set [10] relates to Mus musculus. As to the kind of experiment: Anti-psoriasis effect in IMQ-induced C57BL/6 mouse assessed as reduction in cumulative score at 100 mg/kg administered topically twice daily for 6 days and measured after 24 hrs. To be noted: time 7.0 day. It counts as functional, organism-based.
For data set [11], the target named is T2, Protein cereblon/Interleukin-1 receptor-associated kinase 4. As to the kind of experiment: PROTAC activity at CRBN/IRAK4 in human PBMC cells assessed as induction of IRAK4 degradation incubated for 24 hrs by HiBiT lytic reagent based analysis relative to control. It counts as cell-based.
Target sequence in this assay (Q96SW2 whole entry, looked up, one chain of several): as above
Data set [12] concerns Mus musculus. As to the kind of experiment: Anti-psoriasis effect in IMQ-induced C57BL/6 mouse assessed as reduction in delta ear thickness at 100 mg/kg administered topically twice daily for 6 days and measured after 24 hrs. In kind it is functional, organism-based. To be noted: time 7.0 day.

Activity calls are given as the source filed them. The rule behind the calls is not given here.

hERG, sequence (Q12809 whole entry): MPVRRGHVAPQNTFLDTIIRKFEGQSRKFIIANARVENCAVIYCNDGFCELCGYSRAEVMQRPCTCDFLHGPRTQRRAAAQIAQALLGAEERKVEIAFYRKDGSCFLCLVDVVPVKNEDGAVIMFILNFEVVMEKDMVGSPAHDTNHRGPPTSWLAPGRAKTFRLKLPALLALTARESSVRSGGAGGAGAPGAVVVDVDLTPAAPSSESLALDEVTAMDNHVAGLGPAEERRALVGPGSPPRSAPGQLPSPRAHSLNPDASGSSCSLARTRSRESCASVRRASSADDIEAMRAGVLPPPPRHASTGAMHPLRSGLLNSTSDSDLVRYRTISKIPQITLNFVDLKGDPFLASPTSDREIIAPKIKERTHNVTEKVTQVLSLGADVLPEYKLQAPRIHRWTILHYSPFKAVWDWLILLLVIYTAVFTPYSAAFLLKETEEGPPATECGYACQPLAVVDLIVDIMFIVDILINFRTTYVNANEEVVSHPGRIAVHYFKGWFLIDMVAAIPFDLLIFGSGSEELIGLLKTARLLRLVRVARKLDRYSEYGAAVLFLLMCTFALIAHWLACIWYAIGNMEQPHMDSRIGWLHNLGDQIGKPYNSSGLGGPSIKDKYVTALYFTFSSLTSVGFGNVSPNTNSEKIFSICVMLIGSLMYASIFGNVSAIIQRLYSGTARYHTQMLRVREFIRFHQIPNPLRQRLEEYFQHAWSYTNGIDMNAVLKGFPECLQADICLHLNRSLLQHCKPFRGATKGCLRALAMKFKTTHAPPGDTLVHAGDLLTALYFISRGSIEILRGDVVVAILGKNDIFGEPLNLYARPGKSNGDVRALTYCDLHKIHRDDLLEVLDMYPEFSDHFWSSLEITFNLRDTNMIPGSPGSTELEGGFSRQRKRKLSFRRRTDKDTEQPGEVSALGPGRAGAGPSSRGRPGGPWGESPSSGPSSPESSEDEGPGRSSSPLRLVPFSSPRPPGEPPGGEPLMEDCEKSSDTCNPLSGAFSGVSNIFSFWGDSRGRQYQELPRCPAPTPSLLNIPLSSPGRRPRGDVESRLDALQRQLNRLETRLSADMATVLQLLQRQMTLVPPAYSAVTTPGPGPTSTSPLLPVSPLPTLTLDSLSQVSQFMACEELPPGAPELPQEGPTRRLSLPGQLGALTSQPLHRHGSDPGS

In data set [1], `CN1CCC2(CC1)Cc1cc(NC(=O)c3cnn4cccnc34)c(N3CCC(CO)CC3)cc1O2` registered an IC50 of 0.91 nM.

Take `Cn1c(=O)n(C2CCC(=O)NC2=O)c2cccc(C#CCO[C@H]3CC[C@H](CN4CCC5(CC4)Cc4cc(NC(=O)c6cnn7cccnc67)c(N6CCC(C(=O)O)CC6)cc4O5)CC3)c21` (stereo partly drawn): the maximal effect (Emax) in [2] turned out to be 38%. For the same compound, the half-life at 1 µM in data set [3], in data set [4] and in data set [6] was over 3.07 h throughout. In addition, the 50% degradation concentration (DC50) in [5] turned out to be 12 nM. The compound also came in with an inhibition at 10 µM on hERG of 43%.

Regarding `Cn1c(=O)n(C2CCC(=O)NC2=O)c2cccc(C#CCOC3CCN(C[C@H]4CC[C@H](n5cc(NC(=O)c6cnn7ccc(N8C[C@H]9C[C@@H]8CO9)nc67)c(C(F)F)n5)CC4)CC3)c21` (stereo partly drawn) [KT-474], the result in the data set on Mus musculus [7], with Mus musculus [9], in the data set on Mus musculus [10] and in the data set on Mus musculus [12] was inactive. For the same compound, in [8], half-maximal inhibition (IC50) required 29.1 nM. The maximal effect (Emax) in data set [11] worked out at 82%.

One may read the IC50 as the point on the concentration scale where inhibition reaches its midpoint. One may read the Emax as the maximal effect, on the per cent scale that the assay sets. The term half-life denotes the time in which the quantity being followed falls by half. For orientation: DC50 means the concentration giving 50% degradation. As usually defined, the inhibition is the percentage by which the read-out fell short of the control.
